Data published in US9241936B2, “Use of rupatadine in the manufacture of pharmaceutical composition for treating chronic obstructive pulmonary disease” (BEIJING WEIFENG YIMIN BIO-TECHNOLOGY LIMITED COMPANY, priority 2012, dated 2016).
Entries after “also recorded” stand apart in the source; their conditions may differ. Like-named read-outs stand apart in the source and are kept apart here.

Key:
[1] = system: TLR4 mutant C3H/HeJ mice with emphysema; assay: pathological evaluation (HE staining) of mice with emphysema induced by TLR4 mutant; format: in vivo; details: i.g. once a day for 4 weeks
Source text: Animals for experiment: C3H/HeN wild type mice on SPF level were purchased from Beijing Vitalriver Experimental Animals Limited Company. TLR4 mutant C3H/HeJ mice were purchased from Institute of model animals, Nanjing University.
Method: Fed the SPF mice and the TLR4 mutant mice in experimental animal center of Institute of pharmaceutics research, Chinese academy of medical sciences. Provide free diet under constant temperature and humidity. The mice were killed until they were 3 months old.
Therapy: Grouping and feeding animal models with medicaments.
HE staining method is also named Hematoxylin-Eosin staining Hematoxylin dye liquor is alkaline, and mainly colors intranuclear chromatin and intracytoplasmic ribosome into bluish violet; Eosin is acidic dye, and mainly colors the components in cytoplasm and extracellular matrix.
The lung tissues on the right lower lobe was cut, fixed by 4 wt % paraformaldehyde and then embedded by paraffin. The largest cross-section of the paraffin embedding the lung tissue was stained by HE staining method, and the result was shown in FIG. 4.

histamine or PAF [2] = details: cited from earlier work; for inhibition of blister: dogs, blister by subcutaneous histamine or PAF, rupatadine 0.3-10 mg/kg, oral administration
macaque = details: 10 mg/Kg; cited from earlier work
[3] = system: smoking-induced COPD mice; assay: amount of inflammatory cytokines in bronchoalveolar lavage fluid of smoking-induced COPD mice (ELISA); format: in vivo, C57BL/6 mice
Procedure: Main agents and animals for experiments: Cigarettes used in the experiment, type 3R4F, were purchased from Tobacco Research Center, University of Kentucky, USA. C57BL/6 mice on level SPF used in the experiment (male, aged 6-8 weeks, 16-18 g) were purchased from Institute of Animal, Chinese academy of medical sciences. […] C57BL/6 mice were put in a smoke box and 5 cigarettes were inhaled without filter tip each time. The ratio of smoke to air was 1:6, and the whole flow rate of gas was 150 ml/min. Smoking experiment was conducted 4 times a day, 30 minutes for each time and last for 24 weeks. Therapy: grouping and feeding animal models with medicaments. The groups were as table 1: [table] The mice were dissected at neck and the […] exposed for intubation. […] The lavage solution was recycled and centrifuged at 1500 r for 10 minutes at 4° C. The supernate was recycled and kept at -20° C. for the test. 100 μl supernate was taken to conduct ELISA examination, and commercial available ELISA kit was used to test the amount of inflammatory cytokines. It can be seen from FIG. 2, compared with the sham-operation group, the content of IL-2 (FIG. 2A), IL-4 (FIG. 2C), IL-17 (FIG. 2D) increased remarkably in lungs of COPD mice.

histamine or PAF [4] = details: cited from earlier work
[5] = system: pulmonary fibrosis induced by Bleomycin of mammals; details: cited from earlier work
histamine H1 receptors [6] = biological target: histamine H1 receptors (Cavia porcellus, UniProt P31389); details: cited from earlier work
[7] = system: smoking-induced COPD mice; assay: amount of inflammatory cells in bronchoalveolar lavage fluid of smoking-induced COPD mice; format: in vivo, C57BL/6 mice
Source text: Main agents and animals for experiments: Cigarettes used in the experiment, type 3R4F, were purchased from Tobacco Research Center, University of Kentucky, USA. C57BL/6 mice on level SPF used in the experiment (male, aged 6-8 weeks, 16-18 g) were purchased from Institute of Animal, Chinese academy of medical sciences.
Preparation of COPD animal model: C57BL/6 mice were put in a smoke box and 5 cigarettes were inhaled without filter tip each time. The ratio of smoke to air was 1:6, and the whole flow rate of gas was 150 ml/min. Smoking experiment was conducted 4 times a day, 30 minutes for each time and last for 24 weeks.
Therapy: grouping and feeding animal models with medicaments. The groups were as table 1:
The mice were dissected at neck and the weasand was exposed for intubation. The lavage amount of PBS was 0.8 ml and the lavage was conducted 3-5 times. The lavage solution was recycled and centrifuged at 1500 r for 10 minutes at 4° C. The supernate was recycled and kept at −20° C. for the test of cytokines.
Cells were reselected and precipitated by 1 ml 1% BSA in PBS. 10 μl resuspension solution was taken for calculating the amount of cells and the hematology analyzer was used for analysis. It can be seen from FIG. 1, compared with the sham-operation group, the total number of hemameba (FIG. 1A), monocyte (FIG. 1B), neutrophile granulocyte (FIG. 1C), lymphocyte (FIG. 1D), basophil (FIG. 1E), and eosinophils (FIG. 1F) in bronchoalveolar lavage fluid of smoking-induced COPD mice increased extremely remarkably.

histamine H1 receptors [8] = details: cited from earlier work
PAF [9] = details: read-out: IC50 of platelet aggregation induced by PAF, cited from earlier work
[10] = system: rats, Guinea pigs and dogs; details: cited from earlier work
PAF [11] = details: whole blood of dogs; read-out: IC50 of platelet aggregation induced by PAF; cited from earlier work
mouse = details: 1000 mg/Kg; cited from earlier work
[12] = system: smoking-induced COPD mice; assay: pathological evaluation (HE staining) of lung tissue of smoking-induced COPD mice; format: in vivo, C57BL/6 mice; details: 6 mg/kg i.g. once a day for 4 weeks
Procedure: Main agents and animals for experiments: Cigarettes used in the experiment, type 3R4F, were purchased from Tobacco Research Center, University of Kentucky, USA. C57BL/6 mice on level SPF used in the experiment (male, aged 6-8 weeks, 16-18 g) were purchased from Institute of Animal, Chinese academy of medical sciences. […] C57BL/6 mice were put in a smoke box and 5 cigarettes were inhaled without filter tip each time. The ratio of smoke to air was 1:6, and the whole flow rate of gas was 150 ml/min. Smoking experiment was conducted 4 times a day, 30 minutes for each time and last for 24 weeks. Therapy: grouping and feeding animal models with medicaments. The groups were as table 1: [table] HE staining method is also named Hematoxylin-Eosin staining method. Hematoxylin dye liquor is alkaline, and mainly colors intranuclear chromatin and intracytoplasmic ribosome into bluish violet. Eosin is acidic dye, and mainly colors the components in cytoplasm and extracellular matrix. The lung tissues on the right lower lobe was cut, fixed by 4 wt % paraformaldehyde and then embedded by paraffin. The largest cross-section of the paraffin embedding lung tissue was stained by HE staining method, and the result was shown in FIG. 3.

eosinophil = details: cited from earlier work
[13] = cited from earlier work
[14] = system: patients suffering seasonal or perennial allergic rhinitis; details: cited from earlier work
mastocytes = details: cited from earlier work
[15] = 6 mg/Kg rupatadine treated group
[16] = bronchoalveolar lavage fluid, ELISA, 6 mg/kg i.g. once a day for 4 weeks after modeling
[17] = bronchoalveolar lavage fluid, 6 mg/kg i.g. once a day for 4 weeks after modeling

Sequence of histamine H1 receptors (Cavia porcellus, UniProt P31389) (P31389 whole entry): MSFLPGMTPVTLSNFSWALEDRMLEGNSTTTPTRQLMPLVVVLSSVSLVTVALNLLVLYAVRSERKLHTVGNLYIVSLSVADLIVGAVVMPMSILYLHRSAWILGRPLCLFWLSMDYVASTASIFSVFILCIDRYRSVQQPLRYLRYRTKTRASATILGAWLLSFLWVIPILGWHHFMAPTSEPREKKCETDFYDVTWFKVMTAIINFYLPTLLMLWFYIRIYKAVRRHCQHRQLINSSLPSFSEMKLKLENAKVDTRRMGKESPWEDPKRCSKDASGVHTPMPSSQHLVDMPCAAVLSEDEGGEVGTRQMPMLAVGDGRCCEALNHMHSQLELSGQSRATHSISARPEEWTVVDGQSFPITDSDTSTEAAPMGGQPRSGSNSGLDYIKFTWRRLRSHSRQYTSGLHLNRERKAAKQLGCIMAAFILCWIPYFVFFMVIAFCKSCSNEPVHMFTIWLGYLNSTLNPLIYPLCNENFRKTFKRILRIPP

IL-17A: IL-17A used in positive control group, purchased from R&D Company
lung tissue pathology, emphysema / structure of alveoli (HE staining) [1]: could effectively inhibit the further development of emphysema in mice

O=C(O)COCCN1CCN(C(c2ccccc2)c2ccc(Cl)cc2)CC1 (stereo not shown) [cetirizine]
inhibition of blister (histamine or PAF [2]): can only inhibit the blister induced by histamine

CCOC(=O)N1CCC(=C2c3ccc(Cl)cc3CCc3cccnc32)CC1 [loratadine]
inhibition of blister (histamine or PAF [2]): can only inhibit the blister induced by histamine

Cc1cncc(CN2CCC(=C3c4ccc(Cl)cc4CCc4cccnc43)CC2)c1 [rupatadine, Rupatadine]
period of QTC and QRS (macaque): would not be extended
content of IFN-γ [3, 15]: did not affect the content of IFN-γ
content of various inflammatory cytokines in lungs of COPD mice [3, 15]: could reduce the content of various inflammatory cytokines
IFN-γ [3, 16]: 26.28 pg/mL
IL-2 [3, 16]: 6.71 pg/mL
IL-4 [3, 16]: 6.54 pg/mL
IL-17 [3, 16]: 35.53 pg/mL
inhibition of conjunctivitis (histamine or PAF [4]; Guinea pig, induced by histamine or PAF): can inhibit conjunctivitis induced by histamine or PAF
therapy effect of eye drops, times better than loratadine (histamine or PAF [4]; applied to eye drops, versus loratadine): 10 times
effect on pulmonary fibrosis induced by Bleomycin ([5]; in vivo): can convert the pulmonary fibrosis induced by Bleomycin
lethal rate caused by pulmonary fibrosis induced by Bleomycin ([5]; mammals): declining the lethal rate
anti-histamine activity compared with other medicaments (histamine H1 receptors [6]; in vitro): stronger anti-histamine activity than terfenadine, loratadine, cetirizine, hydroxyzine, diphenhydramine; also recorded: the same as desloratadine
IC50 (histamine H1 receptors [6]; read-out: anti-histamine activity IC50, ileum of Guinea pig in vitro): 3.5 nM
anti-histamine activity, times stronger than loratadine (histamine H1 receptors [6]; versus loratadine): 80 times
anti-histamine activity, times stronger than other anti-histamine medicaments (histamine H1 receptors [6]; versus other anti-histamine medicaments): 100 times
amount of various inflammatory cells in bronchoalveolar lavage fluid compared to the model group ([7]; 6 mg/kg rupatadine treated group): could remarkably reduce the amount of various inflammatory cells
Basophil [7, 17]: 24.816 * 10^4 number/mL
Eosinophils [7, 17]: 34.692 * 10^4 number/mL
Lymphocyte [7, 17]: 32.694 * 10^5 number/mL
Monocyte [7, 17]: 49.504 * 10^5 number/mL
Neutrophile granulocyte [7, 17]: 33.864 * 10^5 number/mL
total hemameba [7, 17]: 13.69 * 10^6 number/mL
affinity to histamine H1 receptors (histamine H1 receptors [8]): good affinity
selectivity to peripheral nervous receptors H1 (histamine H1 receptors [8]): highly selective
lung tissue pathology, emphysema / structure of alveoli (HE staining) [1]: could effectively recover normal structure of alveoli
duration of effect (histamine or PAF [2]; after intake of rupatadine): 24 h
time of best potency after intake (histamine or PAF [2]; after intake of rupatadine): 4 h
inhibition of blister (histamine or PAF [2]): can effectively inhibit blister
IC50 (PAF [9]; platelet rich plasma (of rabbits)): 2900 nM
IC50 (PAF [9]): 200 nM
arrhythmia [10]: nor would it lead to arrhythmia
IC50 (PAF [11]): 290 nM
period of QTC and QRS (mouse): would not be extended
lung tissue pathology, structure of alveoli (HE staining) [12]: could effectively recover normal structure of alveoli
inhibition of chemotaxis of eosinophil (eosinophil): can inhibit
time for blood concentration to reach the peak ([13]; after intaking tablet): 1 h
time for blood concentration to reach the peak ([13]; after intaking the capsule): 1.5 h
half-life period ([13]; as stated in b6): 5.9 h
half-life period ([13]; oral administration): 12 h
alleviation of symptoms relative to placebo ([14]; 2.5 mg, 5 mg, 10 mg, 20 mg per day, two weeks): can alleviate the symptoms more effectively than placebo
effects compared with loratadine ([14]; 10 mg or 20 mg per day rupatadine vs 10 mg per day loratadine, two weeks, seasonal allergic rhinitis): better effects than intaking 10 mg per day loratadine
side effects on central nervous system ([14]; 10 mg per day, compared with cetirizine): little side effects on central nervous system
therapeutic effects compared with ebastine ([14]; 10 mg rupatadine vs 10 mg ebastine daily for 2 weeks, seasonal allergic rhinitis): better therapeutic effects than ebastine
alleviation of symptoms of seasonal allergic rhinitis compared with loratadine and ebastine ([14]; same dosage): can alleviate the symptoms of seasonal allergic rhinitis more than loratadine and ebastine
alleviation of nasal and optical symptoms relative to placebo ([14]; seasonal allergic rhinitis patients, 10 mg and 20 mg per day, two weeks): much more alleviated
inhibition of degranulation of mastocytes (mastocytes): can inhibit
